# Results as given in PubChem BioAssay AID2060500 (Molecular Pharmacology Branch, DTP, NCI, 2025).
# Tested on: 596521-263-R-J1-PDC complex spheroids, viability % of control
# Test: Anticancer human tumor 596521-263-R-J1-PDC patient-derived soft tissue sarcoma cell line growth inhibition [GQUAD]
# Conditions: for IC50: curve of first compound; for viability, T/C: stronger effect = lower value
# Outline: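 Multi-cell-type spheroids of tumor cells with HUVEC and mesenchymal stem cells, treated with drug combinations. Concentrations descend in half-log steps from near clinical Cmax, or from 10 microM where Cmax is unknown; viability read-out.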
# [1] = second compound 0.0316 µM, first compound 0.0316 µM
# [2] = second compound 0.0316 µM, first compound 0.1 µM
# [3] = second compound 0.0316 µM, first compound 0.316 µM
# [4] = second compound 0.0316 µM, first compound 1 µM
# [5] = second compound 0.0316 µM, first compound 3.16 µM
# [6] = second compound 0.0316 µM, first compound 10 µM
# [7] = second compound 0.1 µM, first compound 0.0316 µM
# [8] = second compound 0.1 µM, first compound 0.1 µM
# [9] = second compound 0.1 µM, first compound 0.316 µM
# [10] = second compound 0.1 µM, first compound 1 µM
# [11] = second compound 0.1 µM, first compound 3.16 µM
# [12] = second compound 0.1 µM, first compound 10 µM
# [13] = second compound 0.316 µM, first compound 0.0316 µM
# [14] = second compound 0.316 µM, first compound 0.1 µM
# [15] = second compound 0.316 µM, first compound 0.316 µM
# [16] = second compound 0.316 µM, first compound 1 µM
# [17] = second compound 0.316 µM, first compound 3.16 µM
# [18] = second compound 0.316 µM, first compound 10 µM
# [19] = second compound 1 µM, first compound 0.0316 µM
# [20] = second compound 1 µM, first compound 0.1 µM
# [21] = second compound 1 µM, first compound 0.316 µM
# [22] = second compound 1 µM, first compound 1 µM
# [23] = second compound 1 µM, first compound 3.16 µM
# [24] = second compound 1 µM, first compound 10 µM
# [25] = second compound 3.16 µM, first compound 0.0316 µM
# [26] = second compound 3.16 µM, first compound 0.1 µM
# [27] = second compound 3.16 µM, first compound 0.316 µM
# [28] = second compound 3.16 µM, first compound 1 µM
# [29] = second compound 3.16 µM, first compound 3.16 µM
# [30] = second compound 3.16 µM, first compound 10 µM
# [31] = second compound 10 µM, first compound 0.0316 µM
# [32] = second compound 10 µM, first compound 0.1 µM
# [33] = second compound 10 µM, first compound 0.316 µM
# [34] = second compound 10 µM, first compound 1 µM
# [35] = second compound 10 µM, first compound 3.16 µM
# [36] = second compound 10 µM, first compound 10 µM
# 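Note: spheroids exposed to drugs for 7 days before viability reading.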
# 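Throughout, for viability, T/C: 100% = DMSO vehicle control viability.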
compound,measurement,setting,value
O=C(NO)c1cnc(N2CCN(S(=O)(=O)c3ccc4ccccc4c3)CC2)nc1 + CN(C)c1ccc(Nc2c3ccc(NC(=O)CCN4CCCC4)cc3nc3cc(NC(=O)CCN4CCCC4)ccc23)cc1,IC50,second compound 0.0316 µM,112 nM
same,IC50,second compound 0.1 µM,97.3 nM
same,IC50,second compound 0.316 µM,126 nM
same,IC50,second compound 1 µM,112 nM
same,IC50,second compound 3.16 µM,76.9 nM
same,IC50,second compound 10 µM,< 31.6 nM
same,"viability, T/C",[1],77.3%
same,"viability, T/C",[2],54.4%
same,"viability, T/C",[3],7.95%
same,"viability, T/C",[4],0.72%
same,"viability, T/C",[5],0.35%
same,"viability, T/C",[6],0.33%
same,"viability, T/C",[7],76.3%
same,"viability, T/C",[8],49.4%
same,"viability, T/C",[9],9.87%
same,"viability, T/C",[10],0.62%
same,"viability, T/C",[11],0.38%
same,"viability, T/C",[12],0.34%
same,"viability, T/C",[13],76.5%
same,"viability, T/C",[14],60.9%
same,"viability, T/C",[15],7.1%
same,"viability, T/C",[16],0.61%
same,"viability, T/C",[17],0.29%
same,"viability, T/C",[18],0.34%
same,"viability, T/C",[19],74.4%
same,"viability, T/C",[20],54.7%
same,"viability, T/C",[21],7.49%
same,"viability, T/C",[22],0.53%
same,"viability, T/C",[23],0.35%
same,"viability, T/C",[24],1.39%
same,"viability, T/C",[25],65.4%
same,"viability, T/C",[26],45.4%
same,"viability, T/C",[27],7.07%
same,"viability, T/C",[28],0.61%
same,"viability, T/C",[29],0.37%
same,"viability, T/C",[30],0.78%
same,"viability, T/C",[31],48.2%
same,"viability, T/C",[32],35.6%
same,"viability, T/C",[33],3.88%
same,"viability, T/C",[34],0.37%
same,"viability, T/C",[35],0.37%
same,"viability, T/C",[36],0.34%
COc1cc(C2c3cc4c(cc3C(OC3OC5COC(C)OC5C(O)C3O)C3COC(=O)C23)OCO4)cc(OC)c1O (stereo not given) + CN(C)c1ccc(Nc2c3ccc(NC(=O)CCN4CCCC4)cc3nc3cc(NC(=O)CCN4CCCC4)ccc23)cc1,IC50,second compound 0.0316 µM,3590 nM
same,IC50,second compound 0.1 µM,8190 nM
same,IC50,second compound 0.316 µM,> 10000 nM
same,IC50,second compound 1 µM,2750 nM
same,IC50,second compound 3.16 µM,3120 nM
same,IC50,second compound 10 µM,4290 nM
same,"viability, T/C",[1],101%
same,"viability, T/C",[2],96.2%
same,"viability, T/C",[3],84.5%
same,"viability, T/C",[4],59.8%
same,"viability, T/C",[5],56.8%
same,"viability, T/C",[6],40.3%
same,"viability, T/C",[7],111%
same,"viability, T/C",[8],96.6%
same,"viability, T/C",[9],85%
same,"viability, T/C",[10],70.6%
same,"viability, T/C",[11],57.8%
same,"viability, T/C",[12],48.5%
same,"viability, T/C",[13],96.4%
same,"viability, T/C",[14],107%
same,"viability, T/C",[15],82.7%
same,"viability, T/C",[16],67.2%
same,"viability, T/C",[17],56.8%
same,"viability, T/C",[18],47.8%
same,"viability, T/C",[19],95.9%
same,"viability, T/C",[20],92.8%
same,"viability, T/C",[21],94.6%
same,"viability, T/C",[22],72.3%
same,"viability, T/C",[23],47%
same,"viability, T/C",[24],46.6%
same,"viability, T/C",[25],95.9%
same,"viability, T/C",[26],94.9%
same,"viability, T/C",[27],85%
same,"viability, T/C",[28],63.9%
same,"viability, T/C",[29],49.7%
same,"viability, T/C",[30],46.6%
same,"viability, T/C",[31],68%
same,"viability, T/C",[32],63.6%
same,"viability, T/C",[33],67.1%
same,"viability, T/C",[34],55.5%
same,"viability, T/C",[35],54%
same,"viability, T/C",[36],42.9%
Cc1cccc(N(C)C(=O)C2C(O)CCN2c2nc(C)cc(C(F)(F)F)c2C#N)c1 (stereo not given) + Cc1cnc(CNC(=O)c2c(=O)c3ccc(N4CCCN(C)CC4)nc3n3c2sc2ccccc23)cn1,IC50,second compound 0.0316 µM,> 10000 nM
same,IC50,second compound 0.1 µM,> 10000 nM
same,IC50,second compound 0.316 µM,> 10000 nM
same,IC50,second compound 1 µM,> 10000 nM
same,IC50,second compound 3.16 µM,> 10000 nM
same,IC50,second compound 10 µM,3380 nM
same,"viability, T/C",[1],123%
same,"viability, T/C",[2],98.5%
same,"viability, T/C",[3],106%
same,"viability, T/C",[4],98.5%
same,"viability, T/C",[5],104%
same,"viability, T/C",[6],99.3%
same,"viability, T/C",[7],87%
same,"viability, T/C",[8],87%
same,"viability, T/C",[9],93.8%
same,"viability, T/C",[10],92.4%
same,"viability, T/C",[11],86.3%
same,"viability, T/C",[12],90.9%
same,"viability, T/C",[13],74.5%
same,"viability, T/C",[14],77.9%
same,"viability, T/C",[15],81.7%
same,"viability, T/C",[16],80.6%
same,"viability, T/C",[17],85.4%
same,"viability, T/C",[18],80.6%
same,"viability, T/C",[19],63.1%
same,"viability, T/C",[20],70.7%
same,"viability, T/C",[21],60.7%
same,"viability, T/C",[22],64.7%
same,"viability, T/C",[23],68.5%
same,"viability, T/C",[24],66.3%
same,"viability, T/C",[25],64.6%
same,"viability, T/C",[26],57.9%
same,"viability, T/C",[27],62%
same,"viability, T/C",[28],52.1%
same,"viability, T/C",[29],59%
same,"viability, T/C",[30],54.4%
same,"viability, T/C",[31],50.7%
same,"viability, T/C",[32],49.8%
same,"viability, T/C",[33],49.3%
same,"viability, T/C",[34],51.8%
same,"viability, T/C",[35],51%
same,"viability, T/C",[36],41.8%
C=CCn1c(=O)c2cnc(Nc3ccc(N4CCN(C)CC4)cc3)nc2n1-c1cccc(C(C)(C)O)n1 + CN(C)c1ccc(Nc2c3ccc(NC(=O)CCN4CCCC4)cc3nc3cc(NC(=O)CCN4CCCC4)ccc23)cc1,IC50,second compound 0.0316 µM,644 nM
same,IC50,second compound 0.1 µM,544 nM
same,IC50,second compound 0.316 µM,484 nM
same,IC50,second compound 1 µM,760 nM
same,IC50,second compound 3.16 µM,757 nM
same,IC50,second compound 10 µM,308 nM
same,"viability, T/C",[1],90.4%
same,"viability, T/C",[2],81.2%
same,"viability, T/C",[3],53.5%
same,"viability, T/C",[4],44.9%
same,"viability, T/C",[5],42%
same,"viability, T/C",[6],27.7%
same,"viability, T/C",[7],105%
same,"viability, T/C",[8],82.5%
same,"viability, T/C",[9],53.9%
same,"viability, T/C",[10],44.1%
same,"viability, T/C",[11],45.3%
same,"viability, T/C",[12],32.9%
same,"viability, T/C",[13],90.5%
same,"viability, T/C",[14],90.4%
same,"viability, T/C",[15],54.5%
same,"viability, T/C",[16],47.3%
same,"viability, T/C",[17],46.1%
same,"viability, T/C",[18],32.1%
same,"viability, T/C",[19],86.4%
same,"viability, T/C",[20],79.6%
same,"viability, T/C",[21],57.1%
same,"viability, T/C",[22],47%
same,"viability, T/C",[23],49.4%
same,"viability, T/C",[24],34.7%
same,"viability, T/C",[25],100%
same,"viability, T/C",[26],84.8%
same,"viability, T/C",[27],63.9%
same,"viability, T/C",[28],44.4%
same,"viability, T/C",[29],38.2%
same,"viability, T/C",[30],31.2%
same,"viability, T/C",[31],66.9%
same,"viability, T/C",[32],54.9%
same,"viability, T/C",[33],47.3%
same,"viability, T/C",[34],44.7%
same,"viability, T/C",[35],34.2%
same,"viability, T/C",[36],20.7%
C=CC(=O)N1CCN(c2nc(=O)n(-c3c(C)ccnc3C(C)C)c3nc(-c4c(O)cccc4F)c(F)cc23)C(C)C1 (stereo not given) + Cc1cnc(CNC(=O)c2c(=O)c3ccc(N4CCCN(C)CC4)nc3n3c2sc2ccccc23)cn1,IC50,second compound 0.0316 µM,> 10000 nM
same,IC50,second compound 0.1 µM,> 10000 nM
same,IC50,second compound 0.316 µM,> 10000 nM
same,IC50,second compound 1 µM,> 10000 nM
same,IC50,second compound 3.16 µM,> 10000 nM
same,IC50,second compound 10 µM,< 31.6 nM
same,"viability, T/C",[1],104%
same,"viability, T/C",[2],101%
same,"viability, T/C",[3],103%
same,"viability, T/C",[4],112%
same,"viability, T/C",[5],108%
same,"viability, T/C",[6],75.8%
same,"viability, T/C",[7],88.3%
same,"viability, T/C",[8],86.1%
same,"viability, T/C",[9],91.8%
same,"viability, T/C",[10],107%
same,"viability, T/C",[11],103%
same,"viability, T/C",[12],77.6%
same,"viability, T/C",[13],89.5%
same,"viability, T/C",[14],85.1%
same,"viability, T/C",[15],90.5%
same,"viability, T/C",[16],81.1%
same,"viability, T/C",[17],92.4%
same,"viability, T/C",[18],69.1%
same,"viability, T/C",[19],67.8%
same,"viability, T/C",[20],64.8%
same,"viability, T/C",[21],67%
same,"viability, T/C",[22],71.2%
same,"viability, T/C",[23],76.7%
same,"viability, T/C",[24],63.2%
same,"viability, T/C",[25],57.2%
same,"viability, T/C",[26],56.5%
same,"viability, T/C",[27],61.8%
same,"viability, T/C",[28],60%
same,"viability, T/C",[29],81.4%
same,"viability, T/C",[30],61.8%
same,"viability, T/C",[31],51.1%
same,"viability, T/C",[32],30.9%
same,"viability, T/C",[33],48.6%
same,"viability, T/C",[34],51%
same,"viability, T/C",[35],63.7%
same,"viability, T/C",[36],39.5%
